From ChEMBL document CHEMBL3390835, “New insight into the mode of action of vancomycin dimers in bacterial cell wall synthesis” (Medchemcomm, 2011)
In brackets after ≈: the same amount, converted by molar mass. Activity calls are given as the source filed them. No cut-off for these calls is given here.

What was measured:
Staphylococcus aureus [1] = assay: Inhibition of cell wall synthesis in vancomycin-resistant Staphylococcus aureus assessed as reduction of lipid intermediate synthesis using UDP-Mur-NAc-pentapeptide (L-Ala-gamma-D-Glu-L-Lys-D-Ala-D-Lactate), UDPGlcNAc and [14C] glycine as precursors; assay type: functional, organism-based
Enterococcus faecium [2] = assay: Antibacterial activity against vancomycin A-resistant Enterococcus faecium SR7940; assay type: functional
Staphylococcus aureus [3] = assay: Antibacterial activity against vancomycin-susceptible Staphylococcus aureus RN4220; assay type: functional
Staphylococcus aureus [4] = assay: Inhibition of cell wall synthesis in vancomycin-resistant Staphylococcus aureus assessed as reduction of peptidoglycan synthesis using UDP-Mur-NAc-pentapeptide (L-Ala-gamma-D-Glu-L-Lys-D-Ala-D-Lactate), UDPGlcNAc and [14C] glycine as precursors; assay type: functional, organism-based
Staphylococcus aureus [5] = assay: Inhibition of cell wall synthesis in vancomycin-susceptible Staphylococcus aureus assessed as reduction of lipid intermediate synthesis using UDP-Mur-NAc-pentapeptide (L-Ala-gamma-D-Glu-L-Lys-D-Ala-D-Ala), UDPGlcNAc and [14C] glycine as precursors; assay type: functional, organism-based
Enterococcus faecium [6] = assay: Antibacterial activity against vancomycin B-resistant Enterococcus faecium SR23598; assay type: functional
Staphylococcus aureus [7] = assay: Inhibition of cell wall synthesis in vancomycin-susceptible Staphylococcus aureus assessed as reduction of peptidoglycan synthesis using UDP-Mur-NAc-pentapeptide (L-Ala-gamma-D-Glu-L-Lys-D-Ala-D-Ala), UDPGlcNAc and [14C] glycine as precursors; assay type: functional, organism-based
Enterococcus faecium [8] = assay: Inhibition of fatty acid synthesis in vancomycin B-resistant Enterococcus faecium SRM1101 assessed as [14C]acetic acid incorporation measured after 15 mins cultivation; assay type: functional, organism-based
Enterococcus faecium [9] = assay: Inhibition of RNA synthesis in vancomycin B-resistant Enterococcus faecium SRM1101 assessed as [3H]uracil incorporation measured after 15 mins cultivation; assay type: functional, organism-based
Enterococcus faecium [10] = assay: Inhibition of DNA synthesis in vancomycin B-resistant Enterococcus faecium SRM1101 assessed as [14C]thymidine incorporation measured after 15 mins cultivation; assay type: functional, organism-based
Enterococcus faecium [11] = assay: Inhibition of protein synthesis in vancomycin B-resistant Enterococcus faecium SRM1101 assessed as [14C]leucine incorporation measured after 15 mins cultivation; assay type: functional, organism-based
Enterococcus faecium [12] = assay: Inhibition of peptidoglycan synthesis in vancomycin B-resistant Enterococcus faecium SRM1101 assessed as [3H]N-acetyl-D-glucosamine incorporation measured after 15 mins cultivation; assay type: functional, organism-based

Row | Structure (SMILES) | IC50 (Staphylococcus aureus [1]) | MIC (Enterococcus faecium [2]) | MIC (Staphylococcus aureus [3]) | IC50 (Staphylococcus aureus [4]) | IC50 (Staphylococcus aureus [5]) | MIC (Enterococcus faecium [6]) | IC50 (Staphylococcus aureus [7]) | inhibition (Enterococcus faecium [8]) | inhibition (Enterococcus faecium [9]) | inhibition (Enterococcus faecium [10]) | inhibition (Enterococcus faecium [11]) | inhibition (Enterococcus faecium [12])
1 | CN[C@H](CC(C)C)C(=O)N[C@H]1C(=O)N[C@@H](CC(N)=O)C(=O)N[C@H]2C(=O)N[C@H]3C(=O)N[C@H](C(=O)N[C@H](C(=O)O)c4cc(O)cc(O)c4-c4cc3ccc4O)[C@H](O)c3ccc(c(Cl)c3)Oc3cc2cc(c3O[C@@H]2O[C@H](CO)[C@@H](O)[C@H](O)[C@H]2O[C@H]2C[C@](C)(NCc3c4oc5c(CN[C@@]6(C)C[C@H](O[C@H]7[C@H](Oc8c9cc%10cc8Oc8ccc(cc8Cl)[C@@H](O)[C@@H](NC(=O)[C@@H](CC(C)C)NC)C(=O)N[C@@H](CC(N)=O)C(=O)N[C@H]%10C(=O)N[C@H]8C(=O)N[C@H](C(=O)N[C@H](C(=O)O)c%10cc(O)cc(O)c%10-c%10cc8ccc%10O)[C@H](O)c8ccc(c(Cl)c8)O9)O[C@H](CO)[C@@H](O)[C@@H]7O)O[C@@H](C)[C@H]6O)cccc5nc-4cc(N)c3=O)[C@H](O)[C@H](C)O2)Oc2ccc(cc2Cl)[C@H]1O | 700 µg/mL (≈ 223 µM) | 8 µg/mL (≈ 2.55 µM) | 2 µg/mL (≈ 0.638 µM) | 31 µg/mL (≈ 9.89 µM) | 98 µg/mL (≈ 31.3 µM) | 1 µg/mL (≈ 0.319 µM) | 2.2 µg/mL (≈ 0.702 µM) |  |  |  |  | 
2 | CN[C@H](CC(C)C)C(=O)N[C@H]1C(=O)N[C@@H](CC(N)=O)C(=O)N[C@H]2C(=O)N[C@H]3C(=O)N[C@H](C(=O)N[C@H](C(=O)NCc4cccc(NC(=O)c5c6nc7c(C(=O)Nc8cccc(CNC(=O)[C@H]9NC(=O)[C@H]%10NC(=O)[C@H](NC(=O)[C@@H]%11NC(=O)[C@H](CC(N)=O)NC(=O)[C@H](NC(=O)[C@@H](CC(C)C)NC)[C@H](O)c%12ccc(c(Cl)c%12)Oc%12cc%11cc(c%12O[C@@H]%11O[C@H](CO)[C@@H](O)[C@H](O)[C@H]%11O[C@H]%11C[C@](C)(N)[C@H](O)[C@H](C)O%11)Oc%11ccc(cc%11Cl)[C@H]%10O)c%10ccc(O)c(c%10)-c%10c(O)cc(O)cc%109)c8)ccc(C)c7oc-6c(C)c(=O)c5N)c4)c4cc(O)cc(O)c4-c4cc3ccc4O)[C@H](O)c3ccc(c(Cl)c3)Oc3cc2cc(c3O[C@@H]2O[C@H](CO)[C@@H](O)[C@H](O)[C@H]2O[C@H]2C[C@](C)(N)[C@H](O)[C@H](C)O2)Oc2ccc(cc2Cl)[C@H]1O |  | 16 µg/mL (≈ 4.71 µM) | 8 µg/mL (≈ 2.35 µM) |  |  | 16 µg/mL (≈ 4.71 µM) |  | inactive | inactive | inactive | inactive | inactive
3 | CN[C@H](CC(C)C)C(=O)N[C@H]1C(=O)N[C@@H](CC(N)=O)C(=O)N[C@H]2C(=O)N[C@H]3C(=O)N[C@H](C(=O)N[C@H](C(=O)O)c4cc(O)cc(O)c4-c4cc3ccc4O)[C@H](O)c3ccc(c(Cl)c3)Oc3cc2cc(c3O[C@@H]2O[C@H](CO)[C@@H](O)[C@H](O)[C@H]2O[C@H]2C[C@](C)(N)[C@H](O)[C@H](C)O2)Oc2ccc(cc2Cl)[C@H]1O |  |  |  |  |  |  |  | inactive | inactive | inactive | inactive | inactive
4 | CN[C@H](CC(C)C)C(=O)N[C@H]1C(=O)N[C@@H](CC(N)=O)C(=O)N[C@H]2C(=O)N[C@H]3C(=O)N[C@H](C(=O)N[C@H](C(=O)O)c4cc(O)cc(O)c4-c4cc3ccc4O)[C@H](O)c3ccc(c(Cl)c3)Oc3cc2cc(c3O[C@@H]2O[C@H](CO)[C@@H](O)[C@H](O)[C@H]2O[C@H]2C[C@](C)(NCc3cccc(NC(=O)c4ccc(C)c5oc6c(C)c(=O)c(N)c(C(=O)Nc7cccc(CN[C@@]8(C)C[C@H](O[C@H]9[C@H](Oc%10c%11cc%12cc%10Oc%10ccc(cc%10Cl)[C@@H](O)[C@@H](N)C(=O)N[C@@H](CC(N)=O)C(=O)N[C@H]%12C(=O)N[C@H]%10C(=O)N[C@H](C(=O)N[C@H](C(=O)O)c%12cc(O)cc(O)c%12-c%12cc%10ccc%12O)[C@H](O)c%10ccc(c(Cl)c%10)O%11)O[C@H](CO)[C@@H](O)[C@@H]9O)O[C@@H](C)[C@H]8O)c7)c-6nc45)c3)[C@H](O)[C@H](C)O2)Oc2ccc(cc2Cl)[C@H]1O | 300 µg/mL (≈ 91.6 µM) | 8 µg/mL (≈ 2.44 µM) | 1 µg/mL (≈ 0.305 µM) | 61 µg/mL (≈ 18.6 µM) | 74 µg/mL (≈ 22.6 µM) | 2 µg/mL (≈ 0.611 µM) | 11 µg/mL (≈ 3.36 µM) | inactive | inactive | inactive | inactive | inactive
5 | CN[C@H](CC(C)C)C(=O)N[C@H]1C(=O)N[C@@H](CC(N)=O)C(=O)N[C@H]2C(=O)N[C@H]3C(=O)N[C@H](C(=O)N[C@H](C(=O)NCc4c5oc6c(CNC(=O)[C@H]7NC(=O)[C@H]8NC(=O)[C@H](NC(=O)[C@@H]9NC(=O)[C@H](CC(N)=O)NC(=O)[C@H](NC(=O)[C@@H](CC(C)C)NC)[C@H](O)c%10ccc(c(Cl)c%10)Oc%10cc9cc(c%10O[C@@H]9O[C@H](CO)[C@@H](O)[C@H](O)[C@H]9O[C@H]9C[C@](C)(N)[C@H](O)[C@H](C)O9)Oc9ccc(cc9Cl)[C@H]8O)c8ccc(O)c(c8)-c8c(O)cc(O)cc87)cccc6nc-5cc(N)c4=O)c4cc(O)cc(O)c4-c4cc3ccc4O)[C@H](O)c3ccc(c(Cl)c3)Oc3cc2cc(c3O[C@@H]2O[C@H](CO)[C@@H](O)[C@H](O)[C@H]2O[C@H]2C[C@](C)(N)[C@H](O)[C@H](C)O2)Oc2ccc(cc2Cl)[C@H]1O | 200 µg/mL (≈ 63.8 µM) | 4 µg/mL (≈ 1.28 µM) | 16 µg/mL (≈ 5.11 µM) | 21 µg/mL (≈ 6.7 µM) | 64 µg/mL (≈ 20.4 µM) | 1 µg/mL (≈ 0.319 µM) | 1.2 µg/mL (≈ 0.383 µM) |  |  |  |  | 
6 | Cc1c2oc3c(C)ccc(C(=O)Nc4cccc(CN[C@@]5(C)C[C@H](O[C@H]6[C@H](Oc7c8cc9cc7Oc7ccc(cc7Cl)[C@@H](O)[C@@H](N)C(=O)N[C@@H](CC(N)=O)C(=O)N[C@H]9C(=O)N[C@H]7C(=O)N[C@H](C(=O)N[C@H](C(=O)O)c9cc(O)cc(O)c9-c9cc7ccc9O)[C@H](O)c7ccc(c(Cl)c7)O8)O[C@H](CO)[C@@H](O)[C@@H]6O)O[C@@H](C)[C@H]5O)c4)c3nc-2c(C(=O)Nc2cccc(CN[C@@]3(C)C[C@H](O[C@H]4[C@H](Oc5c6cc7cc5Oc5ccc(cc5Cl)[C@@H](O)[C@@H](N)C(=O)N[C@@H](CC(N)=O)C(=O)N[C@H]7C(=O)N[C@H]5C(=O)N[C@H](C(=O)N[C@H](C(=O)O)c7cc(O)cc(O)c7-c7cc5ccc7O)[C@H](O)c5ccc(c(Cl)c5)O6)O[C@H](CO)[C@@H](O)[C@@H]4O)O[C@@H](C)[C@H]3O)c2)c(N)c1=O | 530 µg/mL (≈ 168 µM) | > 64 µg/mL | 4 µg/mL (≈ 1.27 µM) | 100 µg/mL (≈ 31.8 µM) | 460 µg/mL (≈ 146 µM) | 32 µg/mL (≈ 10.2 µM) | 20 µg/mL (≈ 6.36 µM) |  |  |  |  | 
